Data: patent publication US9975983B2, “Bio-reducible self-assembled liquid crystalline block copolymer for drug delivery” (UNIVERSITY OF CONNECTICUT, priority 2014, dated 2018)

Tests used:
HeLa cells [1] = test: Cellular uptake by CLSM in HeLa cells; format: cell-based
Description: To observe the cellular uptake, HeLa cells (cancer cells) were seeded at a density of 1.0×10^5 cells/well in an 8-well chamber of a Lab-Tek II chamber slide and preincubated for 24 h at 37° C. and 5% CO2. […] The cells were then rinsed with PBS, stained with 10 μM Draq5 and fixed with 4% formaldehyde solution for 10 min. Cover glasses were then placed on glass slides. The cellular uptake of free DOX and DOX-NPs was imaged by CLSM at an excitation wavelength of 488 nm for DOX. To quantify cellular uptake, HeLa cells (5×10^5 cells/well) in 0.5 mL were grown on a 24-well plate at 37° C. in a humidified atmosphere of 5% CO2 for 24 h. Serum-free DMEM containing free DOX and DOX-NPs at equivalent doses (25 μg/mL) was added to the cells which were subsequently incubated for 2 h. The cells were then washed three times with PBS, harvested by trypsinization and transferred into Fluorescence Activated Cell Sorter (FACS) tubes. All samples were analyzed by flow cytometry (FACSCalibur, BD Biosciences, San Jose, Calif.) to determine cellular internalization. Fluorescence measurements of intracellular DOX were performed in the FL2 channel.

A549 cells [2] = test: Intracellular uptake and release by CLSM in A549 cells; format: cell-based, human; details: 10 μg/mL DOX equivalents
Description: (§1) A549 (cancer cells) and NIH3T3 (normal cells) cells were seeded at a density of 1.0×10^5 cells/well in an 8-well chamber of a Lab-Tek II chamber slide and preincubated for 24 h at 37° C. and 5% CO2. Serum-free DMEM containing free DOX and DOX-NPs at equivalent doses (10 μg/mL) was added to each well, followed by incubation for 30 min, 2 h and 4 h at 37° C. The cells were then rinsed with PBS, and fixed with 4% formaldehyde solution for 10 min. Cover glasses were then placed on glass slides. The cellular uptake and release behavior of DOX-encapsulated SS or thioester NPs were imaged by confocal laser scanning microscopy (CLSM) (Leica, England) at an excitation wavelength of 488 nm for DOX. Since DOX itself is fluorescent, it was used directly to investigate cellular uptake without additional fluorescent labeling in of the nanoparticles.

HeLa cells [3] = test: MTT cytotoxicity in HeLa cells; format: cell-based; details: equal DOX concentrations
Description: (§2) HeLa cells (7500 cells/well) were seeded on 96-well plates and cultured in 200 μL of DMEM supplemented with 10% FBS, 1% antibiotics, and 1% L-glutamine for 24 h at 37° C. and 5% CO2. After incubation, various concentrations of the blank nanoparticles (0.2-1 mg/mL), DOX-NPs, and free DOX (1-50 μg/mL of DOX equivalents) dissolved in DMEM without supplements were added. After 24 h of incubation with free DOX and DOX-NPs, and 48 h with blank nanoparticles, cytotoxicity was determined using 3-[4,5-dimethylthiazol-2-yl]-[…] bromide dye (MTT dye, final concentration of 0.5 mg/mL) uptake at 540 nm on a microplate reader (Tecan group Ltd., Männedorf, Switzerland).

A549 cells [4] = test: MTT cytotoxicity in A549 cells; format: cell-based, human; details: 24 h
Description: as §2, with “A549 and NIH3T3” for “HeLa”, “DOX-encapsulated SS or thioester NPs” for “the blank nanoparticles (0.2-1 mg/mL), DOX-NPs,”, “incubation,” for “incubation with free DOX and DOX-NPs, and 48 h with blank nanoparticles,”, “Mannedorf,” for “Männedorf,”

NIH3T3 cells = test: Intracellular uptake and release by CLSM in NIH3T3 cells; format: cell-based, Mouse; details: 10 μg/mL DOX equivalents, 30 min to 4 h
Description: as §1

[5] = in vivo; cited from earlier work

| SMILES | Red DOX fluorescent signal in cells (HeLa cells [1]; 2 h) | Cell morphology (HeLa cells [1]; 4 h) | Red DOX fluorescent signal in cells (HeLa cells [1]; 4 h) | Location of red DOX fluorescent signal (A549 cells [2]; 30 min) | Location of red DOX fluorescent signal (A549 cells [2]; 2 h and 4 h) | Relative cytotoxicity (HeLa cells [3]) | Decrease of cell viability (A549 cells [4]; 1-50 μg/mL DOX, dose-dependent) | Cytotoxicity relative to DOX-encapsulated thioester-NPs (A549 cells [4]; all DOX concentrations) | Location of red DOX fluorescent signal (NIH3T3 cells) | Biodistribution of free dye [5] |
| --- | --- | --- | --- | --- | --- | --- | --- | --- | --- | --- |
| COc1cccc2c1C(=O)c1c(O)c3c(c(O)c1C2=O)C[C@@](O)(C(=O)CO)C[C@@H]3O[C@H]1C[C@H](N)[C@H](O)[C@H](C)O1 [free DOX, doxorubicin] | red fluorescent signal was observed | cell shrinkage and blebbing | significant increases in the red signal | entered the cellular nuclei | strong red signal in the cellular nuclei | significantly higher cytotoxicity than DOX-encapsulated NPs | 5-82% | significantly higher | red signal was observed in the cellular nuclei |  |
| CCCCCCCCCCCCCCCCCCN1C(=CC=CC=CC=CC2=[N+](CCCCCCCCCCCCCCCCCC)c3ccccc3C2(C)C)C(C)(C)c2ccccc21.[I-] [free hydrophobic DiR, 1,1′-Dioctadecyl-3,3,3′,3′-tetramethylindotricarbocyanine iodide] |  |  |  |  |  |  |  |  |  | accumulated in liver from 1 h to 24 h with negligible tumor accumulation |
